From US20040059104A1, “Nucleotide mimics and their prodrugs” (priority 2002, published 2004)
Like-named read-outs stand apart in the source and are kept apart here.

Columns and labels:
[1] = test system: Escherichia coli; test: Antimicrobial assay, minimal inhibitory concentration; format: cell-based; conditions: for MIC: Escherichia coli, read-out: E. coli MIC
Method: To examine the antimicrobial potential of the nucleotide mimics of the present invention an assay was employed that allowed the screening of a large number of compounds simultaneously. The type of bacteria chosen to screen the compounds are organisms associated with human disease and represent major groups of bacteria based on their structure and metabolism. Bacterial cultures of Escherichia coli and Staphylococcus aureus were incubated overnight at 37° C. in a shaker incubator. A lawn of each overnight bacterial culture was made by plating […] of bacteria on agar plates containing Nutrient Broth. Immediately after plating, sterile blank paper discs were put on top of the lawn and a compound was applied to each blank paper disc. Plates were then incubated overnight and examined for the inhibition of bacterial growth the following day. […] The plates were incubated overnight at 37° C. and then examined spectrophotometrically at 600 nm to determine the minimum concentration of each compound that inhibited replication of bacteria as determined by no increase in absorbance at 600 nm.

[2] = in vitro
Method: Typically the total volume used for the experiment was 500 μl. The final concentrations of the reaction components were as follows:
The reacton mixtures were made up and incubated at 37° C. At appropriate times aliquots of 25 μl were removed and added to 65 μl ice-cold methanol. These solutions were our at −20° C. and typically overnight. After incubation samples were inutes at high speed in a microcentrifuge. The supernatant was nd the extract was dried under vacuum in a LabConco Centrivap Concentrator. The dried extracts were resuspended in dH2O and filtered to remove particulate before analysis on reverse phase HPLC.
The reverse phase HPLC columns used for the analysis were either a Phenomenex C18 Aqua column (2×100 mm) or the Phenomenex C18 Aqua column (3×150 mm) used with the appropriate guard column. The HPLC was run at 0.2 ml/min (for the 2×100 mm column) or at 0.5 ml/min (for the 3×150 mm column) with the following buffer system: 5 mM tetrabutylammonium acetate, 50 mM ammonium phosphate, and an acetonitrile gradient running from 5% up to as high as 60%. The amount of remaining parent compound at each time point was used to determine the half-life of the compound. […] Unmodified nucleoside triphosphates were used as positive controls.

[3] = target: T1, HIV Reverse Transcriptase (Type B, 66 kDa subunit) (Human immunodeficiency virus type 1 group M subtype B, UniProt P04585); test: HIV Reverse Transcriptase inhibition assays (RNA-directed DNA polymerization, PicoGreen fluorescence); format: biochemical; conditions: Table 1; template (homopolymer or heteropolymer RNA) not stated; read-out: Ki, Inhibition of HIV Reverse Transcriptase by Nucleotide Mimics
T1 construct: purified HIV Reverse Transcriptase (Type B, 66 kDa subunit)
Method: The assays employed to measure inhibition of HIV Reverse Transcriptase (HIV RT) catalyzed/RNA-directed DNA polymerization are described below. The effectiveness of the compounds of the present invention as inhibitors of HIV RT-catalyzed DNA polymerization was measured in the following assays.
This assay was used to measure the ability of the nucleotide mimics of the present invention to inhibit the enzymatic synthesis of complementary strand DNA from a DNA-primed template of homopolymeric RNA. This assay is a modification of a published procedure (Seville, et al., “Fluorometric Assay for DNA Polymerases and Reverse Transcriptase”, BioTechniques 1996, 21, 664-72).
The compounds were tested at various concentrations up to 500 μM final concentration. DNA polymerase activity was measured in a reaction buffer containing primed-RNA template and dTTP diluted to appropriate concentrations in assay buffer. Nucleotide mimics of the present invention were diluted in buffer and pipetted into the wells of a 96-well plate. The reaction was initiated by addition of enzyme and allowed to proceed at 37° C. for 10 minutes. The reaction was quenched by addition of 5 μL 0.2 M EDTA, pH 8.0.
200 μL of diluted PicoGreen dsDNA Quantitation Reagent (Molecular Probes, Inc, Eugene, Oreg.) was added to each well of a 96-well plate and incubated at room temperature for 5 minutes. Plate wells were read on a microplate fluorometer (Molecular Devices Corp., Sunnyvale, Calif.). The wells were excited at 480 nm and the fluorescence emission intensity (RFU) was measured at 520 nm. The percentage of inhibition was calculated according to the following equation:
% Inhibition=[1−(RFU in test reaction−RFU in blank)/(RFU in control reaction−RFU in blank)]×100.
Each inhibitor was titrated over an appropriate range of concentrations, and inhibition constants were determined using the following equations:
v=Vm[S]/(Km(1+[I]/Ki)+[S])
Certain compounds of the present invention were also tested to determine their ability to inhibit HIV RT-catalyzed DNA polymerization on a heteropolymeric primed-RNA template in the presence of all four natural deoxynucleotide triphosphate (dNTP) substrates. This assay is a modification of a published procedure (Parker et al., “Mechanism of Inhibition of Human Immunodeficiency Virus Type 1 Reverse Transcriptase and Human DNA Polymerases α, β, and γ by the 5′-Triphosphates of Carbovir,3′-Azido-3′-deoxythymidine,2′-3′-Dideoxyguanosine, and 3′-Deoxythymidine”, J. Biol. Chem. 1991, 266 (3), 1754-62).
HIV RT DNA polymerase activity was measured in a reaction buffer containing primed-ribosomal RNA template and dNTPs diluted to appropriate concentrations in assay buffer and pipetted into 1.5 mL microcentrifuge tubes. Nucleotide mimics of the present invention were diluted in buffer and tested at various concentrations up to 5 μM final concentration. The reaction was initiated by addition of enzyme and allowed to proceed at 42° C. for 60 to 90 minutes. The reaction was quenched by addition of 12 μL 0.2 M EDTA, pH 8.0.
50 μL each of reaction was transferred to the well of a 96-well plate (in duplicate). 200 μL of diluted PicoGreen dsDNA Quantitation Reagent was added to each well of a 96-well plate and incubated at room temperature for 5 minutes. Plate wells were read on a microplate fluorometer. The wells were excited at 480 nm and the fluorescence emission intensity (RFU) was measured at 520 nm. The percentage of inhibition and inhibition constants […] were determined for representative compounds as described above.

[4] = in vitro; conditions: for half-life at 500 μM: human, pH 7.4
Method: The stability of compounds in cell extracts was examined as follows:
Cell lysis buffer was added to cell pellets and the cells frozen and thawed 3× using dry ice. The lysis buffer (LB) was composed of the following: 50 mM Tris-HCl, pH 7.4 (100 μl/ml 10× stock), 20% glycerol (200 μl/ml), and 0.5% Triton X-100 (5 μl/ml). 100 μl of LB was added to each microfuge tube containing 10^7 frozen CEM cells. After the cells were lysed the extracts were centrifuged at high speed in a microcentrifuge for 5 minutes and the clarified cell extract transferred to a new tube. The cell stability reaction mixtures contained concentrations of buffer, magnesium, nucleotide, and cell extract as shown below:
The reaction mixtures were incubated at 37° C. At each time point, including at time zero, 12.5 μl aliquots were added to 40 μl ice-cold methanol. […] The samples were incubated in methanol for at least 60 minutes and typically overnight at −20° C. prior to further processing. The cell extracts were centrifuged at high speed in refrigerated microcentrifuge for 20 minutes and the supernatant transferred to a new tube. The extract was then dried under vacuum in a LabConco Centrivap Concentrator. The samples were then resuspended in 40 or 50 μl dH2O, filtered to remove any particulate, and analyzed by reverse phase HPLC.
The reverse phase HPLC columns used for the analysis were either a Phenomenex C18 Aqua column (2×100 mm) or the Phenomenex C18 Aqua column (3×150 mm) used with the appropriate guard column. The HPLC flow rate was either 0.2 ml/min (for the 2×100 mm column) or 0.5 ml/min (for the 3×150 mm column) with the following buffer system: 5 mM tetrabutylammonium acetate, 50 mM ammonium phosphate, and an acetonitrile gradient running from 5% up to as high as 60%. The amount of remaining parent compound at each time point was used to determine the half-life of the compound. […] Unmodified nucleoside triphosphates were used as positive controls.

[5] = overnight at 37° C., tested 0-200 μg/ml, NA = Not active
[6] = value in brackets beside the μg/ml value

## 3′-Azido-3′-deoxythymidine 5′-α-P-borano-β,γ-imidotriphosphate [Compound 23]
[1]; [5]
  E. coli MIC: 50 to 100 µg/mL
[1]; [6]
  E. coli MIC: (99-198) uM
[2]; bovine, serum
  Half-Life, Serum Half-Lives of NTPs and AZT Triphosphate Mimics: 36 h
[3]
  Ki: 105 nM

## [BH3-][P+](O)(OCC1OC(n2cc(C)c(=O)[nH]c2=O)CC1N=[N+]=[N-])OP(=O)(O)C(Cl)(Cl)P(=O)(O)O (single isomer, unassigned) [Compound 26-isomer 2, 3′-Azido-3′-deoxythymidine 5′-α-P-borano-β,γ-(dichloromethylene)triphosphate]
[1]; [5]
  MIC: 10 µg/mL
[1]; [6]
  MIC: 17.5 µM
[4]
  half-life at 500 μM: > 2880 min
[2]; bovine, serum, Serum Half-Lives of NTPs and AZT Triphosphate Mimics
  half-life at 500 μM: 2880 min
[3]
  Ki: 74 nM

## [BH3-][P+](O)(OCC1OC(n2cc(C)c(=O)[nH]c2=O)CC1N=[N+]=[N-])OP(=O)(O)C(F)(F)P(=O)(O)O (single isomer, unassigned) [Compound 27-isomer 2, 3′-Azido-3′-deoxythymidine 5′-α-P-borano-β,γ-(difluoromethylene)triphosphate]
[1]; [5]
  E. coli MIC: 50 µg/mL
[1]; [6]
  E. coli MIC: (93) uM
[3]
  Ki: 61 nM

## BP(=O)(OCC1OC(n2cc(C)c(=O)[nH]c2=O)CC1N=[N+]=[N-])OP(=O)(O)C(F)(F)P(=O)(O)O (single isomer, unassigned; isomer 3) [Compound 27-Isomer, 3′-Azido-3′-deoxythymidine 5′-α-P-borano-β,γ-(difluoromethylene)triphosphate]
[2]; bovine, serum
  Half-Life, Serum Half-Lives of AZT Triphosphate Mimic Prodrugs: >48 h

## BP(=O)(OC[C@@H]1O[C@H](n2cc(C)c(=O)[nH]c2=O)C[C@H]1N=[N+]=[N-])OP(=O)(O)OP(=O)(O)O (stereo partly drawn) [AZT 5′-α-P-boranotriphosphate, reference compound]
[2]; bovine, serum
  Half-Life, Serum Half-Lives of NTPs and AZT Triphosphate Mimics: 6 h

## Cc1cn([C@H]2C[C@H](N=[N+]=[N-])[C@@H](COP(=O)(O)OP(=O)(O)OP(=O)(O)O)O2)c(=O)[nH]c1=O [AZT Triphosphate, 3′-azido-3′-deoxythymidine (AZT, an anti-HIV drug) triphosphate, reference compound]
[2]; bovine, serum
  Half-Life, Serum Half-Lives of NTPs and AZT Triphosphate Mimics: 2 h

## Cc1cn([C@H]2C[C@H](N=[N+]=[N-])[C@@H](CO)O2)c(=O)[nH]c1=O [AZT, 3′-azido-3′-deoxythymidine, reference compound]
[1]; [5]
  MIC: 2 µg/mL
[1]; [6]
  MIC: 7.5 µM

## Nc1ncnc2c1ncn2[C@@H]1O[C@H](COP(=O)(O)OP(=O)(O)OP(=O)(O)O)[C@@H](O)[C@H]1O [Adenosine Triphosphate, reference compound]
[4]; Table 10, 50% CEM cell extract, 37° C., 500 μM, time points through 48 hours
  Half-Life, Cell Extract Half-Lives of AZT 5'-α-P-borano-β,γ-(difluoromethylene) triphosphate Prodrugs: 15 min
[4]; Table 11, 50% CEM cell extract, 37° C., 500 μM, time points through 48 hours
  Half-Life, Cell Extract Half-Lives of Gemcitibine 5'-Methylendiphosphonate and its Prodrugs: 15 min
[4]; 50% CEM cell extract
  half-life at 500 μM: 15 min
[2]; Table 6, 50% fetal calf serum, 37° C., 500 μM, time points through 48 hours
  Half-Life, Serum Half-Lives of NTPs and AZT Triphosphate Mimics: 2 h
[2]; bovine, 50% fetal calf serum, Serum Half-Lives of AZT Triphosphate Mimic Prodrugs, Table 7, 37° C., 500 μM, time points through 48 hours
  half-life at 500 μM: 90 min
[2]; bovine, 50% fetal calf serum, Serum Half-Lives of Gemcitibine Diphosphate Mimics and Their Prodrugs, Table 8, 37° C., 500 μM, time points through 48 hours
  half-life at 500 μM: 150 min

## Cc1cn([C@H]2C[C@H](N=[N+]=[N-])[C@@H](COP(=O)(O)NP(=O)(O)O)O2)c(=O)[nH]c1=O [Compound 8, 3′-azido-3′-deoxythymidine 5′-imidodiphosphate]
[3]
  Ki: 4400 nM

## BP(=O)(OC[C@H]1O[C@@H](n2cc(C)c(=O)[nH]c2=O)C[C@@H]1N=[N+]=[N-])OP(=O)(O)C(F)P(=O)(O)O (stereo partly drawn) [Compound 25, 3′-Azido-3′-deoxythymidine 5′-α-P-borano-β,γ-(fluoromethylene)triphosphate]
[3]
  Ki: 27 nM

## Cc1cn(C2CC(N=[N+]=[N-])C(COP(O)(=S)OP(=O)(O)C(F)(F)P(=O)(O)O)O2)c(=O)[nH]c1=O (stereo not drawn) [Compound 29, 3′-Azido-3′-deoxythymidine 5′-α-P-thio-β,γ-(difluoromethylene)triphosphate]
[3]
  Ki: 90 nM

## Cc1cn([C@H]2C[C@@H](N=[N+]=[N-])[C@@H](COP(=O)(O)NP(=O)(OCCSC(=O)C(C)(C)C)OCCSC(=O)C(C)(C)C)O2)c(=O)[nH]c1=O [Compound 71, 3′-Azido-3′-deoxythymidine 5′-β,β-O-di(S-pivaloyl-2-thioethyl)imidodiphosphate]
[1]; [5]
  MIC: 20 µg/mL
[1]; [6]
  MIC: 28 µM

## Cc1cn([C@H]2C[C@H](O)[C@@H](COP(=O)(O)OP(=O)(O)OP(=O)(O)O)O2)c(=O)[nH]c1=O [Thymidine Triphosphate, reference compound]
[2]; bovine, serum, 500 μM
  Half-Life, Serum Half-Lives of NTPs and AZT Triphosphate Mimics: 2 h
